Assay results published in patent publication US20230014181A1, “CULTURE SYSTEM AND METHODS FOR IMPROVED MODELING OF NEUROLOGICAL CONDITIONS” (Genentech, Inc., priority 2021, published 2023).
Where a SMILES comes first, the peptide text is derived from it. [ ]: non-standard residue; d: D form. Nle = CCCC[C@H](N)C(=O)O

Assays:
[1] = system: human iPSC neurons and astrocytes treated with 5 μM sAβ42s; assay: Focused small molecule screen, double culture (neuron, astrocyte), rescue from sAβ42s toxicity, high content imaging; assay type: cell-based; conditions: for % B3T rescue / % Cux2 rescue / % MAP2 rescue / % Synapse rescue: double culture, 5 μM sAβ42s
Protocol: FIGS. 11A-11D show synapse % rescue versus MAP2% rescue (FIGS. 11A-11B) and beta III tubulin % rescue versus MAP2% rescue (FIGS. 11C-11D), in neurons and astrocytes (FIGS. 11A and 11C) or neurons, astrocytes, and microglia (FIGS. 11B and 11D) treated with 5 μM sAβ42s and small molecules from a focused screen of known neuroprotective agents at multiple concentrations (50 μM, 25 μM, 12.5 μM and 6.25 μM (double culture), 50 μM, 12.5 μM, 3.1 μM and 0.78 μM (triple culture). Small molecules that prevented toxicity in dendrites (MAP2), synapses (Synapsin 1/2), cell count (CUX2), or axons ([…]) at or above 30% were considered hits (red dotted line).
Neurons from both NSC lines were evaluated by immunofluorescence staining. Briefly, cells were fixed with 4% PFA and 4% sucrose at room temperature for 20 minutes using Bravo automation. Fixed cells were then washed 2 times with PBS using Biotek 406 microplate washer (Beckman Coulter), followed by permeabilization and blocking by incubation with a solution containing 1×PBS, 0.1% Triton X-100, 2% donkey serum, and 1% BSA at room temperature for 30 minutes. Blocking solution was removed and cells were incubated with primary antibodies in blocking solution overnight at 4° C. After washing 6 times with PBS on Biotek 406 cell plate washer (Beckman Coulter), cells were then incubated with fluorophore-conjugated secondary antibodies for 1 hour at room temperature in the dark to avoid photobleaching. Cells were then washed 6 more times in with PBS before imaging. Fluorescent images were captured using IN Cell 6000 confocal microscope (GE Healthcare Life Sciences). The image analysis was performed with IN Cell 6000 analysis software.
Prior to experimentation, media volume in wells containing neurons was equalized with liquid handling automation (Bravo) in order to ensure precise control of concentrations. All Aβ42 oligomers, anti-Aβ, small molecules, inflammatory cytokines were prepared at 10× concentration and added to Neuronal Culture Media at an appropriate volume. For the repeated dosing experiments, the media were refreshed 50% at each dosing first, before adding Aβ42 oligomers, and/or anti-Aβ antibody at the specified final concentration.
In double (neuron, astrocyte) and triple (neuron, astrocyte, microglia) cultures, each small molecule listed in Table 1 was tested in the AD model paradigm at up to four concentrations. Molecules that characterized ≥30% rescue in any of the four measurements of dendrites area (MAP2), synapses count (synapsin 1/2), or cell count (CUX2), or axon area (Beta III Tubulin; “BT3”)) were classified as hits (FIGS. 11A-11D, Table 2, and Table 3).

[2] = system: human iPSC neurons, astrocytes and microglia treated with 5 μM sAβ42s; assay: Focused small molecule screen, triple culture (neuron, astrocyte, microglia), rescue from sAβ42s toxicity; assay type: cell-based
Summary of the method: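 A hit was any compound giving ≥30% rescue of dendrite area (MAP2), synapse count, CUX2 cell count or axon area when dosed against 5 μM sAβ42s toxicity. Testing used iPSC-derived double (neuron/astrocyte) or triple (plus microglia) cultures, at four concentrations of 50, 25, 12.5 and 6.25 μM for double and 50, 12.5, 3.1 and 0.78 μM for triple cultures.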

CCCC[C@@H](C=O)NC(=O)[C@H](CC(C)C)NC(=O)[C@H](CC(C)C)NC(C)=O [Ac-Leu-Leu-Nle-CHO] (Ac-Leu-Leu-[Nle]-aldehyde)
% B3T rescue ([1]; 6.25 μM compound): 14% | % Cux2 rescue ([1]; 6.25 μM compound): 85% | % MAP2 rescue ([1]; 6.25 μM compound): 31% | % Synapse rescue ([1]; 6.25 μM compound): 0% | % B3T rescue ([1]; 12.5 μM compound): 0% | % Cux2 rescue ([1]; 12.5 μM compound): 87% | % MAP2 rescue ([1]; 12.5 μM compound): 18% | % Synapse rescue ([1]; 12.5 μM compound): −4% | % B3T rescue ([1]; 25 μM compound): −11% | % Cux2 rescue ([1]; 25 μM compound): 87% | % MAP2 rescue ([1]; 25 μM compound): 20% | % Synapse rescue ([1]; 25 μM compound): −5% | % B3T rescue ([1]; 50 μM compound): 0% | % Cux2 rescue ([1]; 50 μM compound): 78% | % MAP2 rescue ([1]; 50 μM compound): 23% | % Synapse rescue ([1]; 50 μM compound): 2% | % B3T rescue ([2]; 0.78 μM compound): 38% | % MAP2 rescue ([2]; 0.78 μM compound): 21% | % Synapse rescue ([2]; 0.78 μM compound): 14% | % B3T rescue ([2]; 3.13 μM compound): 57% | % MAP2 rescue ([2]; 3.13 μM compound): 55% | % Synapse rescue ([2]; 3.13 μM compound): 38% | % B3T rescue ([2]; 12.50 μM compound): 44% | % MAP2 rescue ([2]; 12.50 μM compound): 48% | % Synapse rescue ([2]; 12.50 μM compound): 18%

CC1=NN(c2ccc(C(=O)O)cc2)C(=O)/C1=C\c1ccc(-c2cc(C)c(C)cc2[N+](=O)[O-])o1 [C 646]
% B3T rescue ([1]; 50 μM compound): 49% | % Cux2 rescue ([1]; 50 μM compound): 25% | % MAP2 rescue ([1]; 50 μM compound): 54% | % Synapse rescue ([1]; 50 μM compound): 19% | % B3T rescue ([2]; 0.78 μM compound): 27% | % MAP2 rescue ([2]; 0.78 μM compound): 37% | % Synapse rescue ([2]; 0.78 μM compound): 28% | % B3T rescue ([2]; 12.50 μM compound): 42% | % MAP2 rescue ([2]; 12.50 μM compound): 41% | % Synapse rescue ([2]; 12.50 μM compound): 38% | % B3T rescue ([2]; 50.00 μM compound): 53% | % MAP2 rescue ([2]; 50.00 μM compound): 37% | % Synapse rescue ([2]; 50.00 μM compound): 39%

MDL 28170
% B3T rescue ([1]; 6.25 μM compound): 18% | % Cux2 rescue ([1]; 6.25 μM compound): 81% | % MAP2 rescue ([1]; 6.25 μM compound): 33% | % Synapse rescue ([1]; 6.25 μM compound): 10% | % B3T rescue ([1]; 12.5 μM compound): 22% | % Cux2 rescue ([1]; 12.5 μM compound): 74% | % MAP2 rescue ([1]; 12.5 μM compound): 33% | % Synapse rescue ([1]; 12.5 μM compound): 9% | % B3T rescue ([1]; 25 μM compound): 25% | % Cux2 rescue ([1]; 25 μM compound): 84% | % MAP2 rescue ([1]; 25 μM compound): 36% | % Synapse rescue ([1]; 25 μM compound): 11% | % B3T rescue ([1]; 50 μM compound): 47% | % Cux2 rescue ([1]; 50 μM compound): 57% | % MAP2 rescue ([1]; 50 μM compound): 26% | % Synapse rescue ([1]; 50 μM compound): 23% | % B3T rescue ([2]; 0.78 μM compound): 30% | % MAP2 rescue ([2]; 0.78 μM compound): 19% | % Synapse rescue ([2]; 0.78 μM compound): 10% | % B3T rescue ([2]; 12.50 μM compound): 33% | % MAP2 rescue ([2]; 12.50 μM compound): 31% | % Synapse rescue ([2]; 12.50 μM compound): 8% | % B3T rescue ([2]; 50.00 μM compound): 73% | % MAP2 rescue ([2]; 50.00 μM compound): 47% | % Synapse rescue ([2]; 50.00 μM compound): 41%

N#CC(c1ccnc(NCCc2cccnc2)n1)c1nc2ccccc2s1 (centres unmarked) [AS601245]
% B3T rescue ([1]; 6.25 μM compound): 14% | % Cux2 rescue ([1]; 6.25 μM compound): 9% | % MAP2 rescue ([1]; 6.25 μM compound): 49% | % Synapse rescue ([1]; 6.25 μM compound): 37% | % B3T rescue ([1]; 12.5 μM compound): 20% | % Cux2 rescue ([1]; 12.5 μM compound): 13% | % MAP2 rescue ([1]; 12.5 μM compound): 67% | % Synapse rescue ([1]; 12.5 μM compound): 57% | % B3T rescue ([1]; 25 μM compound): 11% | % Cux2 rescue ([1]; 25 μM compound): 32% | % MAP2 rescue ([1]; 25 μM compound): 73% | % Synapse rescue ([1]; 25 μM compound): 36% | % B3T rescue ([1]; 50 μM compound): −16% | % Cux2 rescue ([1]; 50 μM compound): 123% | % MAP2 rescue ([1]; 50 μM compound): 64% | % Synapse rescue ([1]; 50 μM compound): 19% | protection in focused screens ([1]; double and triple cultures): protective to a lesser extent | % B3T rescue ([2]; 3.13 μM compound): 18% | % MAP2 rescue ([2]; 3.13 μM compound): 54% | % Synapse rescue ([2]; 3.13 μM compound): 17% | % B3T rescue ([2]; 12.50 μM compound): 26% | % MAP2 rescue ([2]; 12.50 μM compound): 74% | % Synapse rescue ([2]; 12.50 μM compound): 26% | % B3T rescue ([2]; 50.00 μM compound): 44% | % MAP2 rescue ([2]; 50.00 μM compound): 95% | % Synapse rescue ([2]; 50.00 μM compound): 45%
